Results: publication PMC9784828, “Antimicrobial Activity of Peptide-Coupled Antisense Peptide Nucleic Acids in Streptococcus pneumoniae” (Microbiology Spectrum, 2022)
pIC50: −log10 of the molar value.

What was measured:
S. pneumoniae strain 19F = test: Bacterial killing assay (CFU/mL reduction after 6 h); assay type: cell-based, Streptococcus pneumoniae; conditions: log CFU reduction CPP-antisense PNA – log CFU reduction CPP-scPNA
Method: Compared to S. pneumoniae strains TIGR4 and D39, strain 19F was clearly affected by incubation with CPP-coupled scPNAs (Fig. S2). Specific antimicrobial activity of TAT-antisense PNAs was low, regardless of the target gene (Fig. S2, Table 2).
(§1) After culturing S. pneumoniae strains in BHI, D39 and 19F were diluted to approximately 10^5 CFU/mL in phosphate-buffered saline (PBS):BHI (93%:7%), while TIGR4 was diluted to approximately 10^5 CFU/mL in PBS:BHI (96%:4%). Next, 450-μL volumes of the respective bacterial suspensions, containing approximately 0.5× 10^5 CFU, were transferred to 2-mL reaction tubes. A 50-μL volume of PNA solution was added to a final PNA concentration of 1 to 20 μM or as indicated. Fifty μL H2O served as a mock control. The reaction tubes were incubated for 6 h at 37°C and 7 rpm (Rotor SB3; Stuart, Staffordshire, United Kingdom). The concentration of CPP-PNA that reduced CFU/mL by 50% after 6 h of incubation compared to an untreated control (IC50) was calculated by nonlinear regression analysis using GraphPad Prism software (GraphPad Software, San Diego, CA).

S. pneumoniae TIGR4 = test: as above; assay type: cell-based, Streptococcus pneumoniae; conditions: for Δlog CFU reduction in S. pneumoniae strains: TIGR4: log CFU reduction CPP-antisense PNA – log CFU reduction CPP-scPNA; for Reduction of bacterial CFU/mL compared to untreated control (in words): concentration range 2.5 to 20 μM, n = 5
Method: The impact of different CPPs on the efficacy of antisense PNAs targeting gyrA and rpoB in S. pneumoniae was tested using an in vitro killing assay ([25]). S. pneumoniae strains were incubated for 6 h with CPP-antisense PNA conjugates. We determined the reduction of bacterial CFU/mL caused by different CPP-coupled antisense PNA constructs compared to an untreated control. Three different CPPs were tested: HIV-1 TAT (TAT), oligolysin (K8), and (RXR)4XB (Table 1). Concentration-dependent bactericidal activity was investigated by treatment of S. pneumoniae TIGR4 in a CPP-antisense PNA conjugate concentration range of 2.5 to 20 μM (Fig. 1).
as §1

[1] = system: G. mellonella larvae infected with S. pneumoniae TIGR4; test: G. mellonella infection model, larval survival; assay type: in vivo, Galleria mellonella; conditions: 10 nmol CPP-PNA/larva; for Effect on survival of infected larvae (in words): data not shown
Method: Antimicrobial efficiency of CPP-antisense PNA conjugates was evaluated in vivo employing a G. mellonella infection and treatment model ([22], [28]). Larvae were infected with S. pneumoniae strain TIGR4 and subsequently treated with 10 nmol CPP-anti-gyrA PNAs. Treatment with levofloxacin served as a positive control. Larval survival was observed over 7 days.
Larvae of the greater wax moth (G. mellonella) were obtained from Bugs-International GmbH (Irsingen/Unterfeld, Germany). For infection experiments, S. pneumoniae TIGR4 was grown for 7 h in BHI, washed twice in a 0.9% NaCl solution, and suspended in 0.9% NaCl to a final concentration of approximately 1 × 10^8 CFU/mL. Larvae weighing 150 to 200 mg were infected with 1 × 10^6 to 3 × 10^6 CFU/larva. Bacteria were injected into the hemocoel of the larvae between the last two pairs of prolegs using a microapplicator (World Precision Instruments, LLC, Sarasota, FL) and a fine-dosage syringe (Omnican-F, 0.01 to 1 mL, 0.30 × 12 mm; B. Braun AG, Melsungen, Germany). As mock control, 0.9% NaCl (PNA experiment) or 0.9% NaCl/3% DMSO (levofloxacin experiment) was injected. For CPP-PNA treatment, larvae were injected 30 min postinfection with 10 nmol CPP-PNA/larva. For levofloxacin treatment, larvae were injected 30 min postinfection with 1 or 10 μg levofloxacin/larva. Larvae were incubated for 7 days, and survival was monitored daily ([22]).

S. pneumoniae strain D39 = test: Bacterial killing assay (CFU/mL reduction after 6 h); assay type: cell-based, Streptococcus pneumoniae; conditions: log CFU reduction CPP-antisense PNA – log CFU reduction CPP-scPNA
Method: Similar results were obtained with S. pneumoniae strain D39 (Fig. S1). (RXR)4XB-coupled antisense PNAs were more efficient than TAT-coupled antisense PNAs. […] The difference between the target genes anti-gyrA and anti-rpoB was less pronounced in D39 than in TIGR4 (Table 2).
as §1

Substance	Δlog CFU reduction in S. pneumoniae strains: 19F (S. pneumoniae strain 19F; CPNA 2.5 μM)	Δlog CFU reduction in S. pneumoniae strains: 19F (S. pneumoniae strain 19F; CPNA 5 μM)	Δlog CFU reduction in S. pneumoniae strains: 19F (S. pneumoniae strain 19F; CPNA 10 μM)	Δlog CFU reduction in S. pneumoniae strains: 19F (S. pneumoniae strain 19F; CPNA 20 μM)	Δlog CFU reduction in S. pneumoniae strains: TIGR4 (S. pneumoniae TIGR4; CPNA 2.5 μM, 6 h)	Δlog CFU reduction in S. pneumoniae strains: TIGR4 (S. pneumoniae TIGR4; CPNA 5 μM, 6 h)	Δlog CFU reduction in S. pneumoniae strains: TIGR4 (S. pneumoniae TIGR4; CPNA 10 μM, 6 h)	Δlog CFU reduction in S. pneumoniae strains: TIGR4 (S. pneumoniae TIGR4; CPNA 20 μM, 6 h)	Reduction of bacterial CFU/mL compared to untreated control (in words) (S. pneumoniae TIGR4; TIGR4, 6 h)	Effect on survival of infected larvae (in words) [1]	Δlog CFU reduction in S. pneumoniae strains: D39 (S. pneumoniae strain D39; CPNA 2.5 μM)	Δlog CFU reduction in S. pneumoniae strains: D39 (S. pneumoniae strain D39; CPNA 5 μM)	Δlog CFU reduction in S. pneumoniae strains: D39 (S. pneumoniae strain D39; CPNA 10 μM)	Δlog CFU reduction in S. pneumoniae strains: D39 (S. pneumoniae strain D39; CPNA 20 μM)	Δlog CFU reduction in S. pneumoniae strains: TIGR4 (S. pneumoniae TIGR4; CPNA 20 μM, 6 h, listed as (RXR)4XB-anti-rpoB)	Δlog CFU reduction in S. pneumoniae strains: 19F (S. pneumoniae strain 19F; CPNA 10 μM, listed as (RXR)4XB-anti-gyrA)	Δlog CFU reduction in S. pneumoniae strains: TIGR4 (S. pneumoniae TIGR4; CPNA 10 μM, 6 h, listed as (RXR)4XB-anti-gyrA)	log CFU reduction (S. pneumoniae TIGR4; TIGR4, 6 h, 20 μM CPP-PNA)	pIC50 (S. pneumoniae TIGR4; TIGR4, 6 h incubation vs untreated control, nonlinear regression, read-out: 50% inhibitory concentration (IC50): concentration that reduced CFU/mL by 50%)	Increase of survival rate ([1]; 30 min postinfection, 7 days, n = 60) [%]
GRKKRRQRRRYK-eg-ctgccaagatga [TAT-anti-rpoB PNA, HIV-1 TAT (48–57) peptide coupled to antisense PNA against S. pneumoniae rpoB]	0.05	0.05	0	0	0	0	0	0	No reduction of bacterial counts	did not increase survival	0	0.11	0.16	0.51						
RXRRXRRXRRXRXB-eg-ctgccaagatga [(RXR)4XB-anti-rpoB PNA, (RXR)4XB peptide coupled to antisense PNA against rpoB]	0.18	0.17	0.16	0.56	0	0.40	0.66	≥ 1	significant decreases	did not increase survival	0	0.16	0.61	1.98	1.58					
RXRRXRRXRRXRXB-eg-tgcattaata [(RXR)4XB-anti-gyrA PNA, (RXR)4XB peptide coupled to antisense PNA against gyrA]	0.72	1.20	≥ 1	1.48	0	0.98	≥ 1	3.18	significant decreases		0	0	0.42	2.23		1.21	1.80	4	6.20	22
